Measured values: paper PMC5853558, “De novo identification of lipid II binding lipopeptides with antibacterial activity against vancomycin-resistant bacteria” (Chemical Science, 2017)
Converted amounts (≈) assume the structure as drawn. *1 amine or outer side, *2 acyl side, *3 side chain or, on linkers, in order; H or OH if unused. Where a SMILES comes first, the peptide text is derived from it. Bridges are numbered along the chain shown (N, C = ends). [ ]: non-standard residue; d: D form. The star is where a group is joined. TBMB = c1c(C[*:1])cc(C[*:3])cc1C[*:2]; NH(CH2)11CH3 = CCCCCCCCCCCCN*; NHDecyl = CCCCCCCCCCN*; NHOctyl = CCCCCCCCN*; NHHex = CCCCCCN*

Columns and labels:
[1] = system: B. subtilis (168); assay: microbe, parasite or virus in culture; format: cell-based; details: Supplemental table S6, lipidated phage display hits; n.a. = not active, highest tested conc 64 µg/ml
Description: (§1) Section 4 Biological and biochemical experiments
(§2) 4.1 Minimum inhibitory concentration assay
(§3) MIC values were determined by using the broth microdilution method. Peptides were dissolved first in DMSO and diluted with broth so that the final peptide concentration was 1024 µg/ml and the DMSO concentration was 4%. Peptide serial dilutions were made in TSB in a polypropylene 96-wells plate using 50 µl volumes. An overnight culture of the organism of interest was diluted to and OD600 of 0.01 and grown until they reach 0.5. The culture was then diluted to 1 x 10^6 CFU/ml and 50 µl of this suspension was added to each well. The highest concentrations were then 512 µg/ml peptide and 2% DMSO. The plates were incubated at the preferred growth temperature of the organism that was used and 250 rpm. […] When […]
(§4) determining the MICs of the lipidated peptides, the lipopeptides were first dissolved in DMSO and diluted with TSB so that the peptide concentration was 128 µg/ml and the DMSO concentration was 4%. After inoculation the highest peptide concentration evaluated was 64 µg/ml and the DMSO concentration was 2%. A DMSO control was tested for each strain to ensure the DMSO did not affect the growth of the particular strain. […]

[2] = system: M. luteus (NCTC2665); assay: microbe, parasite or virus in culture; format: cell-based, Micrococcus luteus
Description: as §1, §2, §3, §4

[3] = system: E. faecium (VRE155); assay: microbe, parasite or virus in culture; format: cell-based, Enterococcus faecium; details: Supplemental table S7, P8 with varying lipids; broth microdilution
Description: as §1, §2, §3, §4

[4] = system: Sheep blood; assay: Hemolysis assay; format: cell-based; details: Supplemental table S7; sheep blood cells in PBS, 32 µg/ml, 1 h at 37°C, absorption at 414 nm
Description: Sheep blood in Alsever’s solution (2 mL) was diluted with PBS (13 mL) and centrifuged (2,000 RPM, 5 min). The supernatant was discarded and the cells were washed with another 13 mL of PBS and centrifuged. Washing was continued until the supernatant was clear. After the final wash the supernatant was discarded and the packed cells were kept on ice. Serial dilutions of each peptide were made in 50 µl PBS with the highest tested concentration 64 µg/mL in PBS, 2%
DMSO. The packed cells (150 µL) were suspended in PBS (10 mL) and 50 µL of this suspension was added to each well. A well plate column containing 0.1% triton x-100 in DI water was used as the 100% lysis control and a second column with PBS (with 2% DMSO) served as the 0% lysis control. After incubation at 37°C for 1h the plates were centrifuged (2,000 RPM, 5 min) and 25 µL of the supernatant was added to 100 µL DI water in a flat-bottom 96-wells plate (polystyrene). […]

[5] = Supplemental table S7, P8 with varying lipids, broth microdilution

CCCCCCCCCCNC(=O)CNC(=O)[C@@H]1CSCc2cc3cc(c2)CSC[C@H](NC(=O)[C@H](CC(N)=O)NC(=O)[C@H](Cc2ccccc2)NC(=O)[C@H](CCCCN)NC(=O)[C@H](CCC(N)=O)NC(=O)[C@@H]2CCCN2C(=O)[C@H](CCCNC(=N)N)NC(=O)[C@@H](NC(=O)[C@H](C)N)CSC3)C(=O)N[C@@H]([C@@H](C)CC)C(=O)N[C@@H](CO)C(=O)N[C@@H](C)C(=O)N[C@@H](CC(N)=O)C(=O)N[C@@H]([C@@H](C)CC)C(=O)N[C@@H](CCCNC(=N)N)C(=O)N1 [Peptide P4-C10] (H-ACRPQKFNCISANIRCG-NHDecyl; linker 2-9-16 via TBMB; N-terminus assumed)
MIC B. subtilis [1]: 8 to 16 µg/mL
MIC M. luteus ([2]; Supplemental table S6, lipidated phage display hits, n.a. = not active, highest tested conc 64 µg/ml): 8 µg/mL (≈ 3.75 µM)

CCCCCCNC(=O)CNC(=O)[C@H]1CSCc2cc3cc(c2)CSC[C@@H](NC(=O)[C@@H](CC(C)C)NC(=O)[C@@H](CC(C)C)NC(=O)[C@@H](CO)NC(=O)[C@@H](CCC(N)=O)NC(=O)[C@@H](CC(C)C)NC(=O)[C@@H](CC(C)C)NC(=O)[C@H](NC(=O)[C@@H](C)N)CSC3)C(=O)N2CCC[C@@H]2C(=O)N[C@H](Cc2ccc(O)cc2)C(=O)N[C@H](CO)C(=O)N[C@H]([C@H](C)O)C(=O)N[C@H](Cc2c[nH]cn2)C(=O)N[C@H](CCCNC(=N)N)C(=O)N1 [Peptide P8-D-C6] (H-[dA][dC][dL][dL][dQ][dS][dL][dL][dC][dP][dY][dS][dT][dH][dR][dC]G-NHHex; linker 2-9-16 via TBMB; N-terminus assumed)
MIC VRE E155 [3]: 16 to 32 µg/mL
MIC M. luteus [2, 5]: 32 µg/mL (≈ 15.5 µM)

CCCCCCCCNC(=O)CNC(=O)[C@H]1CSCc2cc3cc(c2)CSC[C@@H](NC(=O)[C@@H](CC(C)C)NC(=O)[C@@H](CC(C)C)NC(=O)[C@@H](CO)NC(=O)[C@@H](CCC(N)=O)NC(=O)[C@@H](CC(C)C)NC(=O)[C@@H](CC(C)C)NC(=O)[C@H](NC(=O)[C@@H](C)N)CSC3)C(=O)N2CCC[C@@H]2C(=O)N[C@H](Cc2ccc(O)cc2)C(=O)N[C@H](CO)C(=O)N[C@H]([C@H](C)O)C(=O)N[C@H](Cc2c[nH]cn2)C(=O)N[C@H](CCCNC(=N)N)C(=O)N1 [Peptide P8-D-C8] (H-[dA][dC][dL][dL][dQ][dS][dL][dL][dC][dP][dY][dS][dT][dH][dR][dC]G-NHOctyl; linker 2-9-16 via TBMB; N-terminus assumed)
MIC VRE E155 [3]: 8 to 16 µg/mL
MIC M. luteus [2, 5]: 16 µg/mL (≈ 7.65 µM)

CCCCCCCCCCCCNC(=O)CNC(=O)[C@H]1CSCc2cc3cc(c2)CSC[C@@H](NC(=O)[C@@H](CC(C)C)NC(=O)[C@@H](CC(C)C)NC(=O)[C@@H](CO)NC(=O)[C@@H](CCC(N)=O)NC(=O)[C@@H](CC(C)C)NC(=O)[C@@H](CC(C)C)NC(=O)[C@H](NC(=O)[C@@H](C)N)CSC3)C(=O)N2CCC[C@@H]2C(=O)N[C@H](Cc2ccc(O)cc2)C(=O)N[C@H](CO)C(=O)N[C@H]([C@H](C)O)C(=O)N[C@H](Cc2c[nH]cn2)C(=O)N[C@H](CCCNC(=N)N)C(=O)N1 [Peptide P8-D-C12] (H-[dA][dC][dL][dL][dQ][dS][dL][dL][dC][dP][dY][dS][dT][dH][dR][dC]G-{NH(CH2)11CH3}; linker 2-9-16 via TBMB; N-terminus assumed)
MIC VRE E155 [3]: 8 µg/mL (≈ 3.73 µM)
MIC M. luteus [2, 5]: 4 to 8 µg/mL
Hemolysis 32 µg/ml (after 1 h) [4]: 9%
